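The compound was tested at five concentrations on cells cultured in 96-well plates, with a 48-hour exposure period. GI50 is the concentration that inhibits growth by half.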 Activity calls are given as the source filed them. No stated cut-off is given here; in the data, active = GI50 up to about 1.1 µM and inactive = higher.
Legend:
Assay in all cases: growth of human tumour cells (NCI), 48 h
HOP-92 = tested on: HOP-92
UACC-257 = tested on: UACC-257
SNB-75 = tested on: SNB-75
DMS-114 = tested on: DMS-114
HT-29 = tested on: HT-29
RXF 393 = tested on: RXF 393
SK-MEL-5 = tested on: SK-MEL-5
SW-620 = tested on: SW-620
NCI/ADR-RES = tested on: NCI/ADR-RES
M19-MEL = tested on: M19-MEL
A549 = tested on: A549
DMS-273 = tested on: DMS-273
NCI-H23 = tested on: NCI-H23
TK-10 = tested on: TK-10

Measured: GI50

N[C@@H](CSCSC[C@H](N)C(=O)O)C(=O)O
inactive: HOP-92 > 169 µM | UACC-257 > 225 µM | SNB-75 > 225 µM | DMS-114 > 225 µM | HT-29 > 225 µM | RXF 393 > 225 µM | SK-MEL-5 > 225 µM | SW-620 > 225 µM | NCI/ADR-RES > 104 µM | M19-MEL > 225 µM | A549 > 225 µM | DMS-273 > 225 µM | NCI-H23 > 225 µM

CCc1ccc(Nc2cc(=O)[nH]c(=S)n2C)cc1
inactive: HOP-92 > 100 µM | UACC-257 > 100 µM | SNB-75 46.3 µM | DMS-114 > 100 µM | HT-29 > 100 µM | RXF 393 > 100 µM | SK-MEL-5 > 100 µM | SW-620 > 100 µM | M19-MEL > 100 µM | TK-10 > 100 µM | A549 > 100 µM | DMS-273 > 100 µM | NCI-H23 > 100 µM

CSCC(CO)NC(=O)/C=C/c1c(C)[nH]c(=O)[nH]c1=O (stereo unspecified)
inactive: HOP-92 318 µM | UACC-257 820 µM | SNB-75 444 µM | DMS-114 164 µM | HT-29 > 826 µM | RXF 393 > 875 µM | SK-MEL-5 > 820 µM | SW-620 366 µM | NCI/ADR-RES 621 µM | M19-MEL 478 µM | A549 > 875 µM | DMS-273 > 838 µM | NCI-H23 690 µM

Nc1cc(S(=O)(=O)O)cc2cc(S(=O)(=O)O)c(/N=N/c3ccc(-c4ccc(/N=N/c5c(S(=O)(=O)O)cc6cc(S(=O)(=O)O)cc(N)c6c5O)cc4)cc3)c(O)c12
inactive: HOP-92 > 71.9 µM | UACC-257 > 100 µM | SNB-75 > 100 µM | DMS-114 > 100 µM | HT-29 > 100 µM | RXF 393 > 69.5 µM | SK-MEL-5 > 100 µM | SW-620 > 100 µM | NCI/ADR-RES > 100 µM | M19-MEL > 100 µM | A549 > 100 µM | DMS-273 > 100 µM | NCI-H23 > 100 µM

O=C(Nc1ccccc1Br)c1cccc([N+](=O)[O-])c1O
inactive: HOP-92 1.63 µM | UACC-257 2.01 µM | SNB-75 5.25 µM | DMS-114 3.18 µM | HT-29 4.73 µM | RXF 393 1.86 µM | SK-MEL-5 2.16 µM | SW-620 6.81 µM | M19-MEL 2.51 µM | TK-10 1.54 µM | A549 3.37 µM | DMS-273 3.53 µM | NCI-H23 2.5 µM

CCOC(=O)/C=C1/Oc2ccccc2C1(C)O (stereo unspecified)
inactive: HOP-92 > 100 µM | UACC-257 > 100 µM | SNB-75 > 100 µM | DMS-114 > 100 µM | HT-29 > 100 µM | RXF 393 68.7 µM | SK-MEL-5 > 100 µM | SW-620 > 100 µM | M19-MEL > 100 µM | TK-10 > 100 µM | A549 > 100 µM | DMS-273 > 100 µM | NCI-H23 > 100 µM

O=CCCn1[nH]c(=O)ccc1=O
inactive: HOP-92 > 100 µM | UACC-257 > 100 µM | SNB-75 > 100 µM | DMS-114 > 100 µM | HT-29 > 100 µM | RXF 393 > 100 µM | SK-MEL-5 > 100 µM | SW-620 > 100 µM | M19-MEL > 100 µM | TK-10 > 100 µM | A549 > 100 µM | DMS-273 > 100 µM | NCI-H23 > 100 µM

Reference: ChEMBL document CHEMBL1201862, “PubChem BioAssay data set” (2004)
